Measurements from patent publication US6284768A, “Src family SH2 domain inhibitors” (Boehringer Ingelheim Pharmaceuticals, Inc., priority 1999, dated 2001).

Biological target: T1, p56lck GST-SH2 (lck SH2 domain) (Homo sapiens, UniProt P06239)
T1 construct: GST (N)
Experiment: Receptor-ligand equilibrium binding constants by surface plasmon resonance (biosensor), lck SH2 domain
Conditions: Table 1, compounds of formula (II)
Description: The general methods for the determination of Receptor-Ligand Kinetic and Equilibrium Binding Constants using Surface Plasmon Resonance as applied to the lck SH2 Domain have been described in: M. M. Morelock, R. H. Ingraham, R. Betageri.
General Biosensor Methods.
The mobile phase buffer, 10 mM HEPES, pH 7.4, 150 mM NaCl, and 0.05% P-20, was maintained at a flow rate of 5 μL/min in all experiments. All buffers and protein solutions were filtered through a 0.2 um filter and degassed immediately before use.
Strepavidin was diluted to 0.25 mg/ml in 20 mM NaOAc buffer, pH 4.5 and immobilized by free amine coupling to approximately 3000 RU for all 4 flow cells from a single sensor chip .
Surface Kd Determinations.
The surface was regenerated by 4μL of 20 mM HCl followed by 4 μL of 150 mM Tris base. The values used in the analysis were the equilibrium plateau values from which the sample refractive index has been subtracted. For the data analyzed for linear function the equilibrium plateau values without the sample refractive index subtracted were used. Free solution Kd determinations. In a 96 well microtiter plate 20 nM SH2 domain suspended in running buffer containing 0.2 mg/ml BSA and 1 mM DT'T was distributed in 100 μL per well. The highest concentration of compound tested was added to the last well and titrated with 2 fold dilutions for a final of 10 concentrations to be run. 25 μL of the mixture was injected over a strepavidin-biotin-ε-aminohexanoic acid-EGQpYEEIPIA surface and regenerated with 4 μL of 20 mM HCl. […], of 150 mM Tris base was injected after every 11 samples. Typically 8 assays were run in an overnight programmed run.

T1 sequence (P06239 127-224 limits assumed): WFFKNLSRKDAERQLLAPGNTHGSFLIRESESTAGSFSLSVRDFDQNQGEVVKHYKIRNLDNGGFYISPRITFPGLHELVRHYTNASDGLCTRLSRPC

Structure (SMILES) | Kd
COc1ccc(Cn2ccc(C)c(NC(=O)[C@H](Cc3ccc(C(C)(C)C(=O)O)cc3)NC(=O)Cc3ccc(N(Cc4ccccc4)Cc4ccccc4)cc3)c2=O)cc1 [Compound 131] | > 1.3 µM
COc1ccc(Cn2ccc(C)c(NC(=O)[C@H](Cc3ccc(NC(=O)C(=O)O)cc3)NC(=O)OC(C)(C)C)c2=O)cc1 [Compound 4] | 42.5 µM
COc1ccc(Cn2ccc(C)c(NC(=O)[C@H](Cc3ccc(CC(=O)O)cc3)NC(=O)C(C)(C)C)c2=O)cc1 [Compound 63] | 12 µM
COc1ccc(Cn2ccc(C)c(NC(=O)[C@H](Cc3ccc(CC(=O)O)cc3)NC(=O)Cc3ccccc3)c2=O)cc1 [Compound 58] | 5.6 µM
Cc1ccn(Cc2ccc(OC(C)C)cc2)c(=O)c1NC(=O)[C@H](Cc1ccc(CC(=O)O)cc1)NC(=O)Cc1cccc2ccccc12 [Compound 51] | > 69 µM
COc1ccc(Cn2cc(Br)c(C)c(NC(=O)C(Cc3ccc(C(C)(C)C(=O)O)cc3)NC(=O)C(C)(C)c3ccc(Br)cc3)c2=O)cc1 (centres unmarked) [Compound 122] | 5.3 µM
COc1ccc(Cn2ccc(C)c(NC(=O)[C@H](Cc3ccc(NC(=O)C(=O)O)cc3)NC(=O)c3csc(NS(=O)(=O)c4ccc(Cl)cc4)n3)c2=O)cc1 [Compound 14] | 4.2 µM
COc1ccc(Cn2ccc(C)c(NC(=O)[C@H](Cc3ccc(NC(=O)C(=O)O)cc3)NC(=O)Cc3csc(N)n3)c2=O)cc1 [Compound 10] | 6.7 µM
CCCCCCn1ccc(C)c(NC(=O)C(Cc2ccc(C(C)(C)C(=O)O)cc2)NC(=O)CCc2ccccc2)c1=O (centres unmarked) [Compound 204] | 10 µM
COc1ccc(Cn2ccc(C)c(NC(=O)[C@H](Cc3ccc(NC(=O)C(=O)O)cc3)NC(C)=O)c2=O)cc1 [Compound 6] | 8.3 µM
COc1ccc(Cn2ccc(C)c(NC(=O)[C@H](Cc3ccc(CC(=O)O)cc3)NC(=O)Cc3cc(=O)oc4cc(N(C)C)ccc34)c2=O)cc1 [Compound 64] | 17 µM
CCCCCn1ccc(C)c(NC(=O)[C@H](Cc2ccc(CC(=O)O)cc2)NC(=O)Cc2cccc3ccccc23)c1=O [Compound 70] | 24 µM
Cc1ccn(Cc2ccoc2)c(=O)c1NC(=O)C(Cc1ccc(C(C)(C)C(=O)O)cc1)NC(=O)Cc1cccc2ccccc12 (centres unmarked) [Compound 201] | 6.7 µM
COc1ccc(Cn2ccc(C)c(NC(=O)[C@H](Cc3ccc(CC(=O)O)cc3)NC(=O)Cc3ccc(N(C)C)cc3)c2=O)cc1 [Compound 93] | 12 µM

The remaining compounds from weak to strong by Kd, led by results:

Kd | Structure (SMILES)
3.9 µM | COc1ccc(Cn2ccc(C)c(NC(=O)C(Cc3ccc(C(C)(C)C(=O)O)cc3)NC(=O)C(C)C)c2=O)cc1 (centres unmarked) [Compound 170]
2.4 µM | COc1ccc(Cn2ccc(C)c(NC(=O)[C@H](Cc3ccc(NC(=O)C(=O)O)cc3)NC(=O)Cc3ccccc3[N+](=O)[O-])c2=O)cc1 [Compound 34]
1.9 µM | COc1ccc(Cn2ccc(C)c(NC(=O)[C@H](Cc3ccc(NC(=O)C(=O)O)cc3)NC(=O)Cc3ccc(C(C)C)cc3)c2=O)cc1 [Compound 43]
1.8 µM | COc1ccc(Cn2ccc(C)c(NC(=O)[C@H](Cc3ccc(NC(=O)C(=O)O)cc3)NC(=O)Cc3ccc(N(C)C)cc3)c2=O)cc1 [Compound 22]
1.6 µM | COc1ccc(Cn2ccc(C)c(NC(=O)[C@H](Cc3ccc(CC(=O)O)cc3)NC(=O)Cc3cccc(OC(C)(C)C)c3)c2=O)cc1 [Compound 164]
1 µM | COc1ccc(Cn2ccc(C)c(NC(=O)[C@H](Cc3ccc(CC(=O)O)cc3)NC(=O)Cc3ccc(C(C)(C)C)cc3)c2=O)cc1 [Compound 162]
0.99 µM | COc1ccc(Cn2ccc(C)c(NC(=O)[C@H](Cc3ccc(C(O)C(=O)O)cc3)NC(=O)Cc3cccc4ccccc34)c2=O)cc1 (stereo partly drawn) [Compound 8, 3-[2'-(S)-(1""-Naphthylacetyl)amino-3'-[4"-(1'"-hydroxy-1'"-carboxy)methyl]benzene]propanoylamino-1-(4-methoxybenzyl)-4-methyl-2-pyridone]
0.43 µM | COc1ccc(Cn2ccc(C)c(NC(=O)[C@H](Cc3ccc(C(C)(C)C(=O)O)cc3)NC(=O)Cc3ccccc3)c2=O)cc1 [Compound 120]
0.19 µM | COc1ccc(Cn2ccc(C)c(NC(=O)[C@H](Cc3ccc(C(C)(C)C(=O)O)cc3)NC(=O)Cc3ccc(C)cc3)c2=O)cc1 [Compound 114]
